Measurements as given in patent US20060204537A1, “Silicone blends and composites for drug delivery” (Genzyme Corporation, priority 2002, published 2006).

Experiment: Release of Paclitaxel from silicone elastomer coatings into calf serum
Type: physicochemical
Conditions: for steady state release rate of Paclitaxel: calf serum, 37° C.
Description: All samples were dip-coated pieces of 316 L stainless steel, measuring 1 cm×1 cm with 26 gauge thickness. The stainless steel pieces were first cleaned by sonicating in 3% Isopanasol, deionised (DI) water, and acetone, each for 6 minutes, then dipped into the silicone composite solutions of the invention. Silicone elastomer solutions were made with DAP® 100% silicone rubber adhesive (from DAP, Inc., Maryland) co-dissolved with either Paclitaxel or Tranilast and 20% (w/w) of polyethylene glycol, MW 3400 (PEG) in methylene chloride. Upon setting, the silicone elastomer solutions formed a film on the steel pieces having a certain thickness. Paclitaxel was loaded at 2% of silicone weight. Tranilast was loaded at 5% of silicone weight. […] All samples were placed in glass culture tubes with 2 mL of either PBS, pH 7.4 or calf serum. The culture tubes were then placed in a shaking water bath at 37° C. and 120 rpm. At each time interval, all of the release media was removed and replaced by fresh solution. Paclitaxel samples were assayed using a competitive inhibition enzyme immunoassay (CIEIA) kit from Hawaii Biotech, Aiea, Hi. Tranilast samples were assayed using UV spectrophotometry at a wavelength of 340 nm.

duration of almost zero-order release after the initial burst (both films, with and without PEG): 60 days
steady state release rate of Paclitaxel (films with 20% weight PEG MW 3400): 0.38 ± 0.03 µg/day
initial burst of Paclitaxel (films without PEG compared with films with 20% PEG): higher initial burst
steady state release rate of Paclitaxel (films without PEG): 0.21 ± 0.03 µg/day
duration of continued but decreased release (silicone elastomer coatings): ≤ 140 days
Compound: CC(=O)O[C@H]1C(=O)[C@@]2(C)[C@H]([C@H](OC(=O)c3ccccc3)[C@]3(O)C[C@H](OC(=O)[C@H](O)[C@@H](NC(=O)c4ccccc4)c4ccccc4)C(C)=C1C3(C)C)[C@]1(OC(C)=O)CO[C@@H]1C[C@@H]2O [Paclitaxel]
